Here are results for 3 compounds from patent US20020037495A1, “High throughput screening for inhibitors of fatty acid, ergosterol, sphingolipid, or phospholipid synthesis in fungi” (priority 2000, published 2002).

pIC50: −log10 of the molar value. Values after ≈ are worked out from the molar mass of the structure shown. Like-named read-outs stand apart in the source and are kept apart here.

For test [1], the target named is T1, Saccharomyces cerevisiae FAS complex (Saccharomyces cerevisiae, UniProt P07149+P19097).
T1 construct: A FAS assay using partially purified S. cerevisiae FAS complex was used to measure NADPH oxidation; tissue Sigma; host or cells: yeast extract (Sigma), FAS complex partially purified after Stoops et al. 1978
The test can be described thus: FAS assay measuring NADPH oxidation. Type of test: biochemical. The method, then: In another inhibition assay, Saccharomyces cerevisiae FAS complex was obtained from a yeast extract (Sigma) and assayed as described in (Stoops et al., J.B.C., 253:4464-4475, 1978). A crude preparation of Candida albicans FAS can be prepared from a 1-21 YPD overnight culture of SC5314 following essentially the protocol used for S. cerevisiae FAS, with the exception that the last purification step by gel filtration was omitted. The assay cocktail contains: 0.14 mM NADPH, 0.36 mM acetyl-CoA, 0.18 mM malonyl-CoA, 5 mM EDTA, 8 mM DTT, 0.1 M MES pH 6, 100 μM compound in 1% DMSO, and fungal FAS extract. Changes in NADPH oxidation are followed for 1 hour using a BMG fluorimeter set at 340 nm excitation and 460 nm emission. The inhibition of fatty acid synthesis in these assays is expressed as a percent activity compared to the one obtained using 1% DMSO.
A FAS assay using partially purified S. cerevisiae FAS complex was used to measure NADPH oxidation as described herein.

For test [2], the system named is S. cerevisiae MMB1493 or C. albicans SC5314 or Y01.06. The test can be described thus: 14C-acetate incorporation into fatty acids. The test is classed as cell-based. Particulars: 10 minutes preincubation, 10 minutes with 14C-acetate, 30° C. The method, then: Generally, ^14C-acetate incorporation is measured essentially as described in Kuhajda et al., P.N.A.S., 91:6379-6383, 1994. Logarithmically growing cells (4^8 cells of S. cerevisiae MMB1493 or C. albicans SC5314 or Y01.06) were preincubated with 100 μM compounds in DMSO for 10 minutes at 30° C. ^14C-Acetate was added to 20 μCi, mixed and further incubated for 10 minutes at 30° C. Fatty acids were recovered by alkaline ethanolysis (7.5% KOH in 90% ethanol, 1 00ul) at 50° C. for 1 hour, followed by acidification with concentrated HCl (15 μl) and petroleum ether extraction. The radioactivity in the organic layer was counted using a Beckman LS650 multipurpose scintillation counter using Betamax (ICN) scintillation fluid. Cerulenin was used as control at 100 μM; at this concentration 80-90% inhibition was routinely observed in this assay.

Test [3] concerns OLE1, YOL101c, and YGL039w genes. The test can be described thus: Transcriptional profiling (TxP) of yeast treated with FAS inhibitor. The test is classed as cell-based. To be noted: 0.1, 0.2 and 0.3 μM; 3 and 5 hour time points.
Protocol: Logarithmically growing hypersensitive yeast MMB 1489 (Δpdr5 Δsnq2) cells were treated with cerulenin at 0.5 X, 1 X, and 1.5 X the MIC value (0.1, 0.2 and 0.3 μM) and cells were harvested at 1, 3 and 5 hour time points following drug treatment. Total RNA was obtained from cell pellets treated with 0.1, 0.2, and 0.3 μM cerulenin. […] Following hybridization, the data was normalized, filtered and analyzed.
The next test deals with S. cerevisiae mdr mutant. The test can be described thus: Fungal growth inhibition (OD600) / MIC testing. To be noted: for MIC: Saccharomyces cerevisiae. The test is classed as cell-based. The method, then: Assay of Fungal Growth Inhibition: If desired, the ability of each candidate compound to inhibit fungal growth can readily be measured as follows. After incubating the yeast cultures and test compounds for 6 hours in the 96-well plates, as described above, the OD600 of the plates is measured (e.g., using a Wallac/Victor 2 plate reader). The OD600 can be measured before or after the above-described chemiluminescent assay. A test compound that decreases the OD600 of a yeast culture, relative to the OD600 obtained in the absence of the candidate compound, is an antifungal agent.
For the assay, the reporter strains were grown at 30° C. overnight (approximately 14-15 hours) in SC-Leu medium. Typically, the cultures were grown to an OD600 of 0.1, though cells at OD600 of 0.05-0.15 were also appropriate. Plates were then seeded with a 100 μl aliquot of the yeast culture and incubated at 30° C. for approximately 6 hours. To identify antifungal compounds (those affording growth inhibition), the OD600 was measured using a Wallac/Victor 2 plate reader.
The library of 80,000 small molecule compounds was screened for FAS inhibitors at concentration of 100 μM with the Pole1-lacZ reporter strain. Hits were defined as compounds that afforded 2-fold Pole1-lacZ induction. The primary screen yielded 850 hits (1.1% hit rate) as defined above. Among these, 182 were deemed structurally acceptable and subjected to retesting using the same Pole1-IacZ induction assay and an antifungal assay by growth inhibition in MIC testing.

For the next test, the system named is YGL039w promoter. The test can be described thus: YGL039w promoter-lacZ reporter induction. The test is classed as cell-based, S. cerevisiae. The source says: (§1) The OLE1, YOL101c, and YGL039w promoters (along with their respective ATG translation start sites) each were, individually, flised to a lacZ reporter gene (which lacked an ATG translation start site) and introduced in the vector pRS415. The resulting reporter plasmids were then, separately, introduced into a multi-drug resistant yeast strain, thereby producing PL1, P41, and Ml, which are identical to each other except that PL1 carries the […], and M1 carries the YGL039w promoter (Millennium Pharmaceuticals, Inc., MMB#1495, 1497 and 1604, respectively). These yeast strains can be readily used to measure the level of activity of the OLE1, YOL101c, or YGL039w promoter by measuring expression of the lacZ gene. Enzymatic and colorimetric assays for measuring lacZ gene expression are well known in the art and can be used in the invention.
Having determined that antiflingal agents like cerulenin increase the activity of the OLE1 and YOL101 c promoters, yeast strains containing one or both promoters each operably linked to a reporter gene (e.g., lacZ) can be used in a method for determining whether a test compound is an inhibitor of fungal fatty acid synthesis and is thus a candidate antifungal agent. Such a method can be carried out as follows. […]

Another test relates to YOL101c promoter. The test can be described thus: YOL101c promoter-lacZ reporter induction (chemiluminescence). The test is classed as cell-based, S. cerevisiae.
Source text: as §1

For the next test, the system named is OLE1 promoter. Kind of test: OLE1 promoter-lacZ reporter induction (chemiluminescence). The test is classed as cell-based, S. cerevisiae.
Source text: as §1
For example, the test compounds can be tested at concentrations of 25 μM and 100 μM. In a convenient high throughput screening method, the test compounds can be assayed in the wells of a multiple-well (e.g., 96-well) plastic plate (e.g., Packard, Inc. Cat. # 6005181), with each well containing a different test compound. Thus, one plate can contain the test compounds at a concentration of 25 μM, while another plate contains the test compounds at a concentration of 100 μM. Each well also contains up to 2.5% DMSO.
Cerulenin is used as a positive control in wells lacking a test compound. A stock solution of cerulenin (2,3-Epoxy-4-oxo-[…]) can be prepared to a concentration of 10 mg/ml in DMSO and stored at −20° C.
Induction of OLE1 Promoter Activity: The yeast glycerol stocks described above are used to prepare fresh yeast cultures that are used in the screening assays. The cell suspension, if frozen, is thawed at 37° C., and 33 μl of the stock is added to 12 ml of SC-Leu medium. The culture then is incubated in a shaking Erlemneyer flask at 30° C. overnight (approximately 14-15 hours). The OD600 of the culture then is measured, with a culture having an OD600 of 0.05-0.15 being suitable for use. […] 1; if necessary, the culture can be diluted with SC-Leu medium to obtain the desired OD600. A 100 μI aliquot of the yeast culture then is added to each well of the 96-well plate containing a test compound, and the cultures are incubated at 30° C. for approximately 6 hours.
To assay for an increase in the activity of the OLE1 promoter, an increase in the level of the lacZ reporter gene expression is measured. A 100 μl aliquot of 2 X substrate buffer is added to each well of the plate. To produce a 100 ml sample of 2 X substrate buffer, the following components are mixed within 1 hour of use, and kept at room temperature: 4.0 ml of GALACTON-STAR™ substrate ((3-chloro-5-(4-methoxyspiro { 1,2-dioxetane-3,2′-(4′chloro)-tricyclo-[3.3.1.1 ^3,7] decan} -4-yl)phenyl-B-D-galactopyranoside); Tropix, Inc., Cat. #GS100), 20.0 ml of SAPHIRE II™ luminescence signal enhancer (Tropix, Inc., Cat. #LAX250), and 76 ml of Lysis Buffer (0.026% Na Deoxycholic acid, 0.053% CTAB, 265 mM NaCl, 395 mM HEPES, pH 7.5). The plates are incubated at room temperature for 45 minutes, before vortexing them for 30 seconds at a low to moderate speed.
A chemiluminescent signal is produced by reaction of β-galactosidase with the substrate. Chemiluminescence can be measured using a TopCount-HTS, with the data mode set to measure […], and with a count time of 0.1 minute. Generally, chemiluminescence should be measured before significant signal decay occurs (i.e., within approximately 90 minutes of initiating the reaction).
Screening plates containing 80,000 individual small molecule compounds (comprising a diversity file) were prepared at concentrations of 100 μM in 96-well plastic clear-bottom plates (Packard, Inc. Cat. # 6005181).

T1 sequence (P07149 whole entry): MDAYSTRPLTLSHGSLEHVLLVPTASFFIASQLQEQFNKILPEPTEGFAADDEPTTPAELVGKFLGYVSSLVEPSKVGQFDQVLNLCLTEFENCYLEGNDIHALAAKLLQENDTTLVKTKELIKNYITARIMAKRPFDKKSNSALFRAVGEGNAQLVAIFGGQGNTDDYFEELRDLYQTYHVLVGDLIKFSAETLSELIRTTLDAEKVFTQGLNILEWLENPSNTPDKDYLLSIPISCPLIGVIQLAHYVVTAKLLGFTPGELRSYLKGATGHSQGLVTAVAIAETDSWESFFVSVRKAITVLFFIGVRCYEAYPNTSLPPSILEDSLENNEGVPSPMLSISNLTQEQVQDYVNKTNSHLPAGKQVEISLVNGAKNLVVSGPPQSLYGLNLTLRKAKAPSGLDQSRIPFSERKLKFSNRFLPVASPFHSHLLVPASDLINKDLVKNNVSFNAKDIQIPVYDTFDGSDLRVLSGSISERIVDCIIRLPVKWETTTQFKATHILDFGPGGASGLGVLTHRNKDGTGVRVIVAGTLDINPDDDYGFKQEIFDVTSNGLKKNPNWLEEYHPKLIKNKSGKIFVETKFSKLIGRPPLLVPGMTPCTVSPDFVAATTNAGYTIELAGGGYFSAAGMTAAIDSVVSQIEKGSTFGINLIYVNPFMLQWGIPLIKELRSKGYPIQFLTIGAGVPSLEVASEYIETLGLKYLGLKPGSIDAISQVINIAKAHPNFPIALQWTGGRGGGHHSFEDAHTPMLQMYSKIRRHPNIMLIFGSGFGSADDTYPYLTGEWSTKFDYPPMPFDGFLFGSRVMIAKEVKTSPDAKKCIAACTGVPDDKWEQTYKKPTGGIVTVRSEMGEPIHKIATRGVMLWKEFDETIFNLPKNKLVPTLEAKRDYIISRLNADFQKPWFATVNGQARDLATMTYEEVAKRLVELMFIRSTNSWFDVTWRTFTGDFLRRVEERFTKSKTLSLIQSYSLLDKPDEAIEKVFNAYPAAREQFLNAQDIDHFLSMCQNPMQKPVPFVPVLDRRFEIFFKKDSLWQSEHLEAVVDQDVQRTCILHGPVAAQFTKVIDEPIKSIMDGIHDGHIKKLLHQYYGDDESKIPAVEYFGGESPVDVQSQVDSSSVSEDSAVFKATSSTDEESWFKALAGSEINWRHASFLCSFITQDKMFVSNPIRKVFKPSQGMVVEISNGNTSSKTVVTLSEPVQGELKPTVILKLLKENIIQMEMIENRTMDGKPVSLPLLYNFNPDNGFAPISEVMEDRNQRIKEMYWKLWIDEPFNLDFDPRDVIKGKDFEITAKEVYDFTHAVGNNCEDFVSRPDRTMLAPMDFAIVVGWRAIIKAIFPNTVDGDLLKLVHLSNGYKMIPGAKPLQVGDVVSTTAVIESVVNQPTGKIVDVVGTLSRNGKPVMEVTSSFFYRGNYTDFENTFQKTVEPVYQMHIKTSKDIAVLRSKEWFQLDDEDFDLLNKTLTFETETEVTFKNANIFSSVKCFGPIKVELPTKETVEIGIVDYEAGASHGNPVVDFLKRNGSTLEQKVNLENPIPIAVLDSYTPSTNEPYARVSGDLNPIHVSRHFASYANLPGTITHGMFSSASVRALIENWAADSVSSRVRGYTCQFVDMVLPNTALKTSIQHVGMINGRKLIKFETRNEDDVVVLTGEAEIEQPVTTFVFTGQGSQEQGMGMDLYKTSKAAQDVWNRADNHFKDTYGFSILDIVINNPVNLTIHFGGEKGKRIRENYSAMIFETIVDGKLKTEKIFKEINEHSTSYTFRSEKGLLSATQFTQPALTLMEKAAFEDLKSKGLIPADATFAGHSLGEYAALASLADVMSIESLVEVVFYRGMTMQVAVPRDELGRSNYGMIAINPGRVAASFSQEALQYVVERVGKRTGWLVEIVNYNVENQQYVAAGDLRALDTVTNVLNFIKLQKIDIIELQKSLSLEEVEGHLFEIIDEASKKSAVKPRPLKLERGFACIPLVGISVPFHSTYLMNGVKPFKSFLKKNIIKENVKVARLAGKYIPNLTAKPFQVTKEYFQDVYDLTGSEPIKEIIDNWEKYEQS
T1 sequence (P19097 whole entry): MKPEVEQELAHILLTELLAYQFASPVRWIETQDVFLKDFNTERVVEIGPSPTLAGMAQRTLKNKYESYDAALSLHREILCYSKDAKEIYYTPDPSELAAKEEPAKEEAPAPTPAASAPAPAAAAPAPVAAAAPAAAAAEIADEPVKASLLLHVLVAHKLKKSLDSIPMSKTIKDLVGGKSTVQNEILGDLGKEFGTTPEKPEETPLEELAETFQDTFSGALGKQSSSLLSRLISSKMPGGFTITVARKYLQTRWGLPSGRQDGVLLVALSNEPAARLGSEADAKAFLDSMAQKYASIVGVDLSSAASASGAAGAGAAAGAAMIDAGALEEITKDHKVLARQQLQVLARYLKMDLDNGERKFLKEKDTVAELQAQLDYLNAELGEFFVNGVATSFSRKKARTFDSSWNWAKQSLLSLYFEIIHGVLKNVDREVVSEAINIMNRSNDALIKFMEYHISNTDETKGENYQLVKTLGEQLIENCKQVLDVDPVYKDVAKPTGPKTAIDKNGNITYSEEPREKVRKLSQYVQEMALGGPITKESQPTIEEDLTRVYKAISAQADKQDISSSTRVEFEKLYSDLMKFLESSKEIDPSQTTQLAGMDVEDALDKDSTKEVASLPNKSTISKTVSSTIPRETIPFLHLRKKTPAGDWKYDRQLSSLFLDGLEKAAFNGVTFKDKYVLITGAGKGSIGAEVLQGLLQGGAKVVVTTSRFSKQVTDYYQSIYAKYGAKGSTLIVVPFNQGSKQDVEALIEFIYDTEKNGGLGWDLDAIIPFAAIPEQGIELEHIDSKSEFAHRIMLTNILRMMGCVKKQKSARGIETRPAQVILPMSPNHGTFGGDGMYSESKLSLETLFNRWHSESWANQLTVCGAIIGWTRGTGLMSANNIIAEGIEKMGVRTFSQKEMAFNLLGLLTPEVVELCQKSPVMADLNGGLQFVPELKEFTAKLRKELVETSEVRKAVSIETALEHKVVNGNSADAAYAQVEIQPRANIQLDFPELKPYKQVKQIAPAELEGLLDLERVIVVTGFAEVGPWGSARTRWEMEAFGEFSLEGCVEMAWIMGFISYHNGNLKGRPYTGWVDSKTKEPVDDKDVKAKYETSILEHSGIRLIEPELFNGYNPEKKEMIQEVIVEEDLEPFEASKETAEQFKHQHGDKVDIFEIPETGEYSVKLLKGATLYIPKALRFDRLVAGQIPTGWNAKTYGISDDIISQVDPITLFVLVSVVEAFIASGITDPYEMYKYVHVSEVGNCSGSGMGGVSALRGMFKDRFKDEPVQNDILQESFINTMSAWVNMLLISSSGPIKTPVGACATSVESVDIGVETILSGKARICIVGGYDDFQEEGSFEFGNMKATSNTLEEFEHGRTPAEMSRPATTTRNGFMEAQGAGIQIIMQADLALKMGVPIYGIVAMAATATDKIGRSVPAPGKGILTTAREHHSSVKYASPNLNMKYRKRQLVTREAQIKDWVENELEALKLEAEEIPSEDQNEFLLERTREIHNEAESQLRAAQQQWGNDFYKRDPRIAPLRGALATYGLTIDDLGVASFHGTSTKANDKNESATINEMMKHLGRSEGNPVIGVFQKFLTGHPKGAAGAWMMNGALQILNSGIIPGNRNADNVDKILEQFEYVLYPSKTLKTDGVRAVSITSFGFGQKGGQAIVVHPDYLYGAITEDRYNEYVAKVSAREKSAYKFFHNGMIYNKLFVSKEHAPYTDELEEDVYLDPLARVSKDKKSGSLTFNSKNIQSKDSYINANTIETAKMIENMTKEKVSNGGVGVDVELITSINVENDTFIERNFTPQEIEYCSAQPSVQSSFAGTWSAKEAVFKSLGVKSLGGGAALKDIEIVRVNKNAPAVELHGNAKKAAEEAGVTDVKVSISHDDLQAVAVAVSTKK

The term inhibition denotes the drop in the measured response relative to a control, in per cent. What is called pIC50 is the negative decadic logarithm of the IC50, by convention in mol/L. As a reminder, the MIC is the lowest concentration found to suppress growth. For `C/C=C/C/C=C/CCC(=O)[C@H]1O[C@H]1C(N)=O` [Cerulenin, 2,3-Epoxy-4-oxo-7,1-dodecadienamide], the inhibition at 100 µM in test [1] (100 μM, within the first 30 minutes, read-out: inhibition of fatty acid synthesis (NADPH oxidation)) was 80 to 90%; in test [1] (read-out: FAS-NADPH ox % Inhibition @ 100 μM), 81%; in test [2], 80 to 90%. In addition, the pIC50 in test [1] (read-out: FAS-NADPH ox IC50) was 5.89 to 6.15. Further, the “gene induction of OLE1, YOL101c and YGL039w (mRNA)” value in test [3] is given as “most highly induced genes”. In addition, the “inhibition of fungal growth” value in the test with S. cerevisiae mdr mutant (0.2 μg/ml) is recorded as “no detectable inhibition of fungal growth”; in the test on S. cerevisiae mdr mutant (0.9 μM) it was “no detectable inhibition of fungal growth”; with S. cerevisiae mdr mutant (2.0 μg/ml), “maximum inhibition of fungal growth”; with S. cerevisiae mdr mutant (9 μM), “maximum inhibition of fungal growth”. The MIC in the test with S. cerevisiae mdr mutant was 0.2 to 0.9 µM (≈ 0.0447 to 0.201 µg/mL); in the test on S. cerevisiae mdr mutant (read-out: MIC value), 0.2 µM (≈ 0.0447 µg/mL). In addition, the “lacZ gene expression, YGL039w promoter strain” value in the test on YGL039w promoter is “increase in lacZ gene expression”. Further, the “lacZ gene expression, YOL101c promoter strain” value in the test with YOL101c promoter was “increase in lacZ gene expression”. Moreover, the increase in chemiluminescence in the test with YOL101c promoter (9 μM, YOL101c promoter strain) is listed as 100-300 fold; with OLE1 promoter (9 μM, OLE1 promoter strain), 100-300 fold. Moreover, the “lacZ gene expression, OLE1 promoter strain” value with OLE1 promoter is “increase in lacZ gene expression”. Moreover, the “induction of promoter activity” value with OLE1 promoter (0.2 μg/ml) was “partial induction of promoter activity”; in the test with OLE1 promoter (0.9 μM), 50%; with OLE1 promoter (2.0 μg/ml), “maximum induction of promoter activity”; with OLE1 promoter (9 μM), “maximum induction of promoter activity”. In addition, the “increase in the level of chemiluminescence relative to uninduced control” value in the test with OLE1 promoter (2.0 μg/ml) came to 100 fold. Moreover, in the test with OLE1 promoter (100 μM, Pole1-lacZ reporter strain), the “OLE1 Fold-induction (100 μM)” value was 479 Fold.

As for `Clc1ccc(COC(Cn2ccnc2)c2ccc(Cl)cc2Cl)c(Cl)c1` (stereo not drawn) [miconoazole], the “induction of the OLE1 reporter” value with OLE1 promoter is “induce this reporter”.

Turning to `CCCCCCC(=O)CCCCCC/C=C/C[C@@H](O)[C@H](O)[C@@](N)(CO)C(=O)O` [myriocin], the “induction of the OLE1 reporter” value in the test on OLE1 promoter is recorded as “induce this reporter”.
